This is an account of results in the NIST ThermoML archive (doi:10.1016/j.jct.2017.11.017).

Numbers after ± are expanded uncertainties.

A short description of this series: activity coefficient (dimensionless); of the first substance listed, at infinite dilution; xn = mol fraction of the nth substance listed. To be noted: 101.33 kPa, Liquid, Chromatography, x1 = 0.

As to `CCC(C)O` (stereo not given) [butan-2-ol] + C[n+]1ccn(CCCO)c1.N#CN=C=[N-], the activity coefficient is 2.74 ± 0.19 (318.15 K); 2.72 ± 0.19 (328.15 K); 2.72 ± 0.19 (338.15 K); 2.72 ± 0.19 (348.15 K); 2.7 ± 0.18 (358.15 K); 2.71 ± 0.18 (368.15 K).
Consider `CCCC=O` [butanal] + C[N+]1(CCCO)CCOCC1.N#C[N-]C#N, for which the activity coefficient reads like this: (318.15 K) 4.26 ± 0.29; (328.15 K) 4.49 ± 0.31; (338.15 K) 4.74 ± 0.32; (348.15 K) 4.97 ± 0.34; (358.15 K) 5.19 ± 0.35; (368.15 K) 5.38 ± 0.37.
Regarding `CCCC=O` [butanal] + C[n+]1ccn(CCCO)c1.N#CN=C=[N-], the activity coefficient reads like this: (318.15 K) 2.68 ± 0.18; (328.15 K) 2.92 ± 0.2; (338.15 K) 3.19 ± 0.22; (348.15 K) 3.43 ± 0.23; (358.15 K) 3.72 ± 0.25; (368.15 K) 3.95 ± 0.27.
For `C1CCCCCC1` [cycloheptane] + C[N+]1(CCCO)CCOCC1.N#C[N-]C#N, the activity coefficient by setting is: (308.15 K) 391 ± 27; (318.15 K) 341 ± 23; (328.15 K) 297 ± 20; (338.15 K) 260 ± 18; (348.15 K) 230 ± 16; (358.15 K) 206 ± 14. The activity coefficient (368.15 K) is 185 ± 13.
Take `C1CCCCCC1` [cycloheptane] + C[n+]1ccn(CCCO)c1.N#CN=C=[N-]: the activity coefficient was determined as 152 ± 10 (298.15 K); 139 ± 10 (308.15 K); 128 ± 9 (318.15 K); 119 ± 8 (328.15 K); 111 ± 8 (338.15 K); 104 ± 7 (348.15 K). In addition, for the setting “358.15 K”, the activity coefficient stood at 97.8 ± 6.7.
As to `C1CCCCC1` [cyclohexane] + C[N+]1(CCCO)CCOCC1.N#C[N-]C#N, the activity coefficient is, setting by setting: (308.15 K) 381 ± 26; (318.15 K) 319 ± 22; (328.15 K) 260 ± 18; (338.15 K) 219 ± 15; (348.15 K) 184 ± 13; (358.15 K) 159 ± 11. Moreover, the activity coefficient (368.15 K) was found to be 138 ± 9.
For `C1CCCCC1` [cyclohexane] + C[n+]1ccn(CCCO)c1.N#CN=C=[N-], the activity coefficient by setting is: (298.15 K) 115 ± 8; (308.15 K) 105 ± 7; (318.15 K) 97.9 ± 6.7; (328.15 K) 91.1 ± 6.2; (338.15 K) 85.5 ± 5.9; (348.15 K) 80.4 ± 5.5. In addition, the activity coefficient (358.15 K) was found to be 76.6 ± 5.2.
Turning to `C1=CCCCC1` [cyclohexene] + C[N+]1(CCCO)CCOCC1.N#C[N-]C#N, the activity coefficient (298.15 K) is 121 ± 8, the activity coefficient (308.15 K) amounted to 97 ± 6.7, the activity coefficient (318.15 K) is 79.1 ± 5.4 and the activity coefficient (328.15 K) turned out to be 65.3 ± 4.5.
For `C1=CCCCC1` [cyclohexene] + C[n+]1ccn(CCCO)c1.N#CN=C=[N-], the activity coefficient runs as follows: (298.15 K) 40.7 ± 2.8; (308.15 K) 38.2 ± 2.6; (318.15 K) 36.1 ± 2.5; (328.15 K) 34.5 ± 2.4; (338.15 K) 32.7 ± 2.2; (348.15 K) 31.4 ± 2.1. Also, the activity coefficient (358.15 K) amounted to 30 ± 2.1.
For `C1CCCCCCC1` [cyclooctane] + C[N+]1(CCCO)CCOCC1.N#C[N-]C#N, the activity coefficient reads like this: (308.15 K) 571 ± 39; (318.15 K) 478 ± 33; (328.15 K) 408 ± 28; (338.15 K) 345 ± 24; (348.15 K) 298 ± 20; (358.15 K) 260 ± 18. Besides, the activity coefficient (368.15 K) is 229 ± 16.
With `C1CCCCCCC1` [cyclooctane] + C[n+]1ccn(CCCO)c1.N#CN=C=[N-], the activity coefficient by setting is: (298.15 K) 216 ± 15; (308.15 K) 198 ± 14; (318.15 K) 181 ± 12; (328.15 K) 165 ± 11; (338.15 K) 153 ± 11; (348.15 K) 143 ± 10. For the setting “358.15 K”, the activity coefficient was determined as 137 ± 9.
Take `C1CCCC1` [cyclopentane] + C[n+]1ccn(CCCO)c1.N#CN=C=[N-]: the activity coefficient (298.15 K) turned out to be 69.3 ± 4.7, the activity coefficient (308.15 K) is 63.7 ± 4.4, the activity coefficient (318.15 K) came to 58.7 ± 4 and the activity coefficient (328.15 K) is 54.5 ± 3.7.
In the case of `CCCCCCCCCC` [decane] + C[N+]1(CCCO)CCOCC1.N#C[N-]C#N, the activity coefficient came out at 2530 ± 180 (308.15 K); 2220 ± 150 (318.15 K); 1980 ± 140 (328.15 K); 1770 ± 120 (338.15 K); 1590 ± 110 (348.15 K); 1430 ± 99 (358.15 K). Further, for the setting “368.15 K”, the activity coefficient amounted to 1310 ± 90.
On to `CCCCCCCCCC` [decane] + C[n+]1ccn(CCCO)c1.N#CN=C=[N-], for which the activity coefficient reads like this: (298.15 K) 1870 ± 130; (308.15 K) 1680 ± 120; (318.15 K) 1530 ± 110; (328.15 K) 1380 ± 95; (338.15 K) 1270 ± 88; (348.15 K) 1170 ± 81. Besides, the activity coefficient (358.15 K) turned out to be 1070 ± 74.
Take `CCOCC` [diethyl ether] + C[N+]1(CCCO)CCOCC1.N#C[N-]C#N: the activity coefficient by setting is: (298.15 K) 59.3 ± 4.1; (308.15 K) 51.3 ± 3.5; (318.15 K) 44.7 ± 3.1; (328.15 K) 39.2 ± 2.7; (338.15 K) 35 ± 2.4.
As for `CCOCC` [diethyl ether] + C[n+]1ccn(CCCO)c1.N#CN=C=[N-], the activity coefficient reads like this: (318.15 K) 20.3 ± 1.4; (328.15 K) 20.3 ± 1.4; (338.15 K) 20.5 ± 1.4; (348.15 K) 20.6 ± 1.4; (358.15 K) 20.7 ± 1.4; (368.15 K) 20.8 ± 1.4.
Consider `CC(C)OC(C)C` [diisopropyl ether] + C[N+]1(CCCO)CCOCC1.N#C[N-]C#N, for which the activity coefficient came to 393 ± 27 (298.15 K), 306 ± 21 (308.15 K) and 244 ± 17 (318.15 K).
For `CC(C)OC(C)C` [diisopropyl ether] + C[n+]1ccn(CCCO)c1.N#CN=C=[N-], the activity coefficient (318.15 K) stood at 96 ± 6.6; the activity coefficient (328.15 K) is 92.7 ± 6.4; the activity coefficient (338.15 K) turned out to be 90.6 ± 6.2; the activity coefficient (348.15 K) turned out to be 88 ± 6; the activity coefficient (358.15 K) was 86.5 ± 5.9; the activity coefficient (368.15 K) was determined as 84.3 ± 5.8.
As to `CCCOCCC` [dipropyl ether] + C[N+]1(CCCO)CCOCC1.N#C[N-]C#N, the activity coefficient runs as follows: (308.15 K) 218 ± 15; (318.15 K) 202 ± 14; (328.15 K) 189 ± 13; (338.15 K) 176 ± 12; (348.15 K) 166 ± 11; (358.15 K) 157 ± 11. The activity coefficient (368.15 K) was 148 ± 10.
With `CCCOCCC` [dipropyl ether] + C[n+]1ccn(CCCO)c1.N#CN=C=[N-], the activity coefficient was 82.3 ± 5.6 (318.15 K); 79.9 ± 5.5 (328.15 K); 77.7 ± 5.3 (338.15 K); 75.8 ± 5.2 (348.15 K); 74.4 ± 5.1 (358.15 K); 72.5 ± 5 (368.15 K).
Turning to `CCO` [ethanol] + C[N+]1(CCCO)CCOCC1.N#C[N-]C#N, the activity coefficient runs as follows: (318.15 K) 1.71 ± 0.11; (328.15 K) 1.66 ± 0.11; (338.15 K) 1.61 ± 0.11; (348.15 K) 1.57 ± 0.1; (358.15 K) 1.54 ± 0.1; (368.15 K) 1.51 ± 0.1.
As to `CCO` [ethanol] + C[n+]1ccn(CCCO)c1.N#CN=C=[N-], the activity coefficient by setting is: (318.15 K) 1.17 ± 0.07; (328.15 K) 1.17 ± 0.07; (338.15 K) 1.18 ± 0.08; (348.15 K) 1.19 ± 0.08; (358.15 K) 1.2 ± 0.08; (368.15 K) 1.2 ± 0.08.
On to `CCOC(C)=O` [ethyl acetate] + C[N+]1(CCCO)CCOCC1.N#C[N-]C#N, for which the activity coefficient (318.15 K) stood at 9.71 ± 0.66; the activity coefficient (328.15 K) came out at 9.78 ± 0.67; the activity coefficient (338.15 K) is 9.83 ± 0.67; the activity coefficient (348.15 K) stood at 9.91 ± 0.68; the activity coefficient (358.15 K) was 10 ± 0.7; the activity coefficient (368.15 K) turned out to be 10.1 ± 0.7.
